From patent US8440830B2, “Tetrahydro-fused pyridines as histone deacetylase inhibitors” (4SC AG, priority 2007, dated 2013)

Tested on: A549 NSCLC cells
Experiment: Cellular cytotoxicity assay (Alamar Blue), A549
Type: cell-based
Details: Homo sapiens, 72 h, upper end given as ≧100, read-out: IC50 (μM), cytotoxicity towards A549 NSCLC cells
Experimental: The anti-proliferative activity of the histone deacetylase inhibitory compounds as described herein, is evaluated using the following cell lines: HeLa and HeLa-KB (cervical carcinoma), H460 (non small cell lung cancer), A549 (non-small cell lung cancer), MCF7 (breast carcinoma), MCF10A (normal, non tumorigenic breast epithelial), MDA-MB468 (breast carcinoma), MDA-MB435 (breast carcinoma), MDA-MB231 (breast carcinoma), SKBR-3 (breast carcinoma), SKOV-3 (ovarial carcinoma), A-2780 (ovarial carcinoma), RKO (colon carcinoma), HCT-15 (colon carcinoma), HCT-116 (colon carcinoma), PC3 (prostate carcinoma), BPH1 (benign prostate hyperplasia), AsPC1 (pancreatic carcinoma), Ca127 (tongue carcinoma), A-431 (vulva carcinoma), Hec1A (endometrial carcinoma), Saos-2 (osteosarcoma), U87MG (glioblastoma), WM266-4 (melanoma), K562 (chronic myeloid leukemia), EOL1 (acute hypereosinophilic myeloid leukemia), CCRF-CEM and CCRF-CEM VCR1000 (acute lymphoblastic leukemia sensitive and resistant towards Vincristine). For quantification of cellular proliferation/living cells the Alamar Blue (Resazurin) cell viability assay is applied (O'Brien et al. Eur J Biochem 267, 5421-5426, 2000). In this assay Resazurin is reduced to the fluorescent resorufine by cellular dehydrogenase activity, correlating with viable, proliferating cells. The examples are dissolved as 20 mM solutions in dimethylsulfoxide (DMSO) and subsequently diluted in semi-logarithmic steps. Cell lines are seeded at respective density into 96 well flat bottom plates in a volume of 200 μl per well. 24 h after seeding 1 μl each of the compound dilutions are added into each well of the 96 well plate. Each compound dilution is tested as quadruplicates. Wells containing untreated control cells are filled with 200 μl DMEM medium containing 0.5% v:v DMSO. The cells are then incubated with the compounds for 72 h at 37° C. in a humidified atmosphere containing 5% carbon dioxide. To determine the viability of the cells, 20 μl of a Resazurin solution (Sigma; 90 mg/l) are added. After 4 h incubation at 37° C. the fluorescence is measured at an extinction of λ=544 nm and an emission of λ=590 nm. For the calculation of the cell viability the emission value from untreated cells is set as 100% viability and the emission rates of treated cells are set in relation to the values of untreated cells. Viabilities are expressed as % values. The corresponding IC50 values of the compounds for cytotoxic activity are determined from the concentration-effect curves by means of non-linear regression.

Q: How did the IC50 turn out when COC(=O)c1ccc(NC(=O)N2CCc3nc(C(=O)Nc4ccccc4N)sc3C2)cc1 [Example 5, Methyl 4-[({2-[(2-aminophenyl)carbamoyl]-6,7-dihydro[1,3]thiazolo[5,4-c]pyridin-5(4H)-yl}carbonyl)amino]benzoate] was run?
A: ≥ 0.2 µM

Q: Which IC50 does the source give for Nc1ccccc1NC(=O)c1nc2c(s1)CN(C(=S)NC1CCNCC1)CC2 [Example 100, N-(2-aminophenyl)-5-[(piperidin-4-ylamino)carbonothioyl]-4,5,6,7-tetrahydro[1,3]thiazolo[5,4-c]pyridine-2-carboxamide] here?
A: ≥ 0.2 µM

Q: For Nc1ccccc1NC(=O)c1nc2c(s1)CN(C(=O)COc1ccc3ccccc3c1)CC2 [Example 175, N-(2-aminophenyl)-5-[(2-naphthyloxy)acetyl]-4,5,6,7-tetrahydro[1,3]thiazolo[5,4-c]pyridine-2-carboxamide], which IC50 is on record?
A: ≥ 0.2 µM

Q: With COc1ccc(NC(=O)C(=O)N2CCc3nc(C(=O)Nc4cc(C(C)C)ccc4N)sc3C2)cc1OC [Example 80, N-(2-amino-5-isopropylphenyl)-5-{[(3,4-dimethoxyphenyl)amino](oxo)acetyl}-4,5,6,7-tetrahydro[1,3]thiazolo[5,4-c]pyridine-2-carboxamide] as the compound, how does the IC50 read?
A: ≥ 0.2 µM

Q: CCCOC(=O)c1ccc(OC(=O)N2CCc3nc(C(=O)Nc4ccccc4N)sc3C2)cc1 [Example 184, 4-(propoxycarbonyl)phenyl 2-[(2-aminophenyl)carbamoyl]-6,7-dihydro[1,3]thiazolo[5,4-c]pyridine-5(4H)-carboxylate] was tested. Which IC50 did it give?
A: ≥ 0.2 µM

Q: How did the IC50 turn out when Nc1ccccc1NC(=O)c1nc2c(s1)CN(S(=O)(=O)c1cccc(OC(F)F)c1)CC2 [Example 165, N-(2-aminophenyl)-5-{[3-(difluoromethoxy)phenyl]sulfonyl}-4,5,6,7-tetrahydro[1,3]thiazolo[5,4-c]pyridine-2-carboxamide] was run?
A: ≥ 0.2 µM

Q: With Nc1ccccc1NC(=O)c1nc2c(s1)CN(C(=O)C(=O)Nc1ccc(N3CCOCC3)nc1)CC2 [Example 73, N-(2-aminophenyl)-5-{[(6-morpholin-4-ylpyridin-3-yl)amino](oxo)acetyl}-4,5,6,7-tetrahydro[1,3]thiazolo[5,4-c]pyridine-2-carboxamide] as the compound, how does the IC50 read?
A: ≥ 0.2 µM

Q: How did the IC50 turn out when COc1ccc(NC(=O)N2CCc3nc(C(=O)Nc4ccccc4N)sc3C2)cn1 [Example 38, N^2-(2-aminophenyl)-N^5-(6-methoxypyridin-3-yl)-6,7-dihydro[1,3]thiazolo[5,4-c]pyridine-2,5(4H)-dicarboxamide] was run?
A: ≥ 0.2 µM

Q: With Cc1ccc(S(=O)(=O)N2CCc3nc(C(=O)Nc4cc(C(C)C)ccc4N)sc3C2)cc1 [Example 170, N-(2-amino-5-isopropylphenyl)-5-[(4-methylphenyl)sulfonyl]-4,5,6,7-tetrahydro[1,3]thiazolo[5,4-c]pyridine-2-carboxamide] as the compound, how does the IC50 read?
A: ≥ 0.2 µM

Q: How did the IC50 turn out when CN(C)c1ccc(NC(=O)C(=O)N2CCc3nc(C(=O)Nc4ccccc4N)sc3C2)cn1 [Example 71, N-(2-aminophenyl)-5-[{[6-(dimethylamino)pyridin-3-yl]amino}(oxo)acetyl]-4,5,6,7-tetrahydro[1,3]thiazolo[5,4-c]pyridine-2-carboxamide] was run?
A: ≥ 0.2 µM

Q: How did the IC50 turn out when Nc1ccccc1NC(=O)c1nc2c(s1)CN(S(=O)(=O)c1ccc3ccccc3c1)CC2 [Example 156, N-(2-aminophenyl)-5-(2-naphthylsulfonyl)-4,5,6,7-tetrahydro[1,3]thiazolo[5,4-c]pyridine-2-carboxamide] was run?
A: ≥ 0.2 µM

Q: With Nc1ccccc1NC(=O)c1nc2c(s1)CN(C(=O)COc1ccccc1)CC2 [Example 172, N-(2-aminophenyl)-5-(phenoxyacetyl)-4,5,6,7-tetrahydro[1,3]thiazolo[5,4-c]pyridine-2-carboxamide] as the compound, how does the IC50 read?
A: ≥ 0.2 µM

Q: Which IC50 does the source give for COc1ccc(N)c(NC(=O)c2nc3c(s2)CN(C(=C[N+](=O)[O-])Nc2ccc(F)cc2)CC3)c1 [Example 149, N-(2-amino-5-methoxyphenyl)-5-{1-[(4-fluorophenyl)amino]-2-nitrovinyl}-4,5,6,7-tetrahydro[1,3]thiazolo[5,4-c]pyridine-2-carboxamide] here?
A: ≥ 0.2 µM

Q: Which IC50 does the source give for COc1cccc(OCC(=O)N2CCc3nc(C(=O)Nc4ccccc4N)sc3C2)c1 [Example 179, N-(2-aminophenyl)-5-[(3-methoxyphenoxy)acetyl]-4,5,6,7-tetrahydro[1,3]-thiazolo[5,4-c]pyridine-2-carboxamide] here?
A: ≥ 0.2 µM

Q: With Nc1ccccc1NC(=O)c1nc2c(s1)CN(C(=O)Nc1ccc(N3CCOCC3)nc1)CC2 [Example 34, N^2-(2-aminophenyl)-N^5-(6-morpholin-4-ylpyridin-3-yl)-6,7-dihydro[1,3]thiazolo[5,4-c]pyridine-2,5(4H)-dicarboxamide] as the compound, how does the IC50 read?
A: ≥ 0.2 µM

Q: COc1ccc(N)c(NC(=O)c2nc3c(s2)CN(C(=O)Nc2ccc(F)cc2)CC3)c1 [Example 51, N^2-(2-amino-5-methoxyphenyl)-N^5-(4-fluorophenyl)-6,7-dihydro[1,3]thiazolo[5,4-c]pyridine-2,5(4H)-dicarboxamide] was tested. Which IC50 did it give?
A: ≥ 0.2 µM

Q: How did the IC50 turn out when COc1ccc(OCC(=O)N2CCc3nc(C(=O)Nc4cc(C(C)C)ccc4N)sc3C2)cc1 [Example 178, N-(2-amino-5-isopropylphenyl)-5-[(4-methoxyphenoxy)acetyl]-4,5,6,7-tetrahydro[1,3]thiazolo[5,4-c]pyridine-2-carboxamide] was run?
A: ≥ 0.2 µM

Q: For CCCCOC(=O)N1CCc2nc(C(=O)Nc3ccccc3N)sc2C1 [Example 187, Butyl 2-[(2-aminophenyl)carbamoyl]-6,7-dihydro[1,3]thiazolo[5,4-c]pyridine-5(4H)-carboxylate], which IC50 is on record?
A: ≥ 0.2 µM

Q: For CN(C)c1cccc(C(=O)N2CCc3nc(C(=O)Nc4ccccc4N)sc3C2)c1 [Example 97, N-(2-aminophenyl)-5-[3-(dimethylamino)benzoyl]-4,5,6,7-tetrahydro[1,3]thiazolo[5,4-c]pyridine-2-carboxamide], which IC50 is on record?
A: ≥ 0.2 µM

Q: Nc1ccccc1NC(=O)c1nc2c(s1)CN(C(=O)NC1CCC(c3cccnc3)CC1)CC2 (stereo not drawn) [Example 41, N^2-(2-aminophenyl)-N^5-(4-pyridin-3-ylcyclohexyl)-6,7-dihydro[1,3]thiazolo[5,4-c]pyridine-2,5(4H)-dicarboxamide] was tested. Which IC50 did it give?
A: ≥ 0.2 µM

Q: With Nc1ccccc1NC(=O)c1nc2c(s1)CN(C(=S)NC1CCC(c3cccnc3)CC1)CC2 (stereo not drawn) [Example 101, N-(2-aminophenyl)-5-{[(4-pyridin-3-ylcyclohexyl)amino]carbonothioyl}-4,5,6,7-tetrahydro[1,3]thiazolo[5,4-c]pyridine-2-carboxamide] as the compound, how does the IC50 read?
A: ≥ 0.2 µM

Q: How did the IC50 turn out when COc1ccc(NC(=C[N+](=O)[O-])N2CCc3nc(C(=O)Nc4ccccc4N)sc3C2)cc1OC [Example 141, N-(2-aminophenyl)-5-{1-[(3,4-dimethoxyphenyl)amino]-2-nitrovinyl}-4,5,6,7-tetrahydro[1,3]thiazolo[5,4-c]pyridine-2-carboxamide] was run?
A: ≥ 0.2 µM

Q: Which IC50 does the source give for CNC(=O)N1CCc2nc(C(=O)Nc3ccccc3N)sc2C1 [Example 17, N^2-(2-aminophenyl)-N^5-methyl-6,7-dihydro[1,3]thiazolo[5,4-c]pyridine-2,5(4H)-dicarboxamide] here?
A: ≥ 0.2 µM

Q: For COc1ccc(N=C(C)N2CCc3nc(C(=O)Nc4ccccc4N)sc3C2)cc1 [Example 128, N-(2-aminophenyl)-5-[N-(4-methoxyphenyl)ethanimidoyl]-4,5,6,7-tetrahydro[1,3]thiazolo[5,4-c]pyridine-2-carboxamide], which IC50 is on record?
A: ≥ 0.2 µM
